From article PMC5823474, “A natural agonist of mosquito TRPA1 from the medicinal plant Cinnamosma fragrans that is toxic, antifeedant, and repellent to the yellow fever mosquito Aedes aegypti” (PLoS Neglected Tropical Diseases, 2018)

Molecular target: T1, AgTRPA1 (Transient Receptor Potential A1) (Anopheles gambiae, UniProt B3G3I7)
T1 construct: AgTRPA1 cRNA expressed in Xenopus laevis oocytes
T1 sequence (B3G3I7 1-1248): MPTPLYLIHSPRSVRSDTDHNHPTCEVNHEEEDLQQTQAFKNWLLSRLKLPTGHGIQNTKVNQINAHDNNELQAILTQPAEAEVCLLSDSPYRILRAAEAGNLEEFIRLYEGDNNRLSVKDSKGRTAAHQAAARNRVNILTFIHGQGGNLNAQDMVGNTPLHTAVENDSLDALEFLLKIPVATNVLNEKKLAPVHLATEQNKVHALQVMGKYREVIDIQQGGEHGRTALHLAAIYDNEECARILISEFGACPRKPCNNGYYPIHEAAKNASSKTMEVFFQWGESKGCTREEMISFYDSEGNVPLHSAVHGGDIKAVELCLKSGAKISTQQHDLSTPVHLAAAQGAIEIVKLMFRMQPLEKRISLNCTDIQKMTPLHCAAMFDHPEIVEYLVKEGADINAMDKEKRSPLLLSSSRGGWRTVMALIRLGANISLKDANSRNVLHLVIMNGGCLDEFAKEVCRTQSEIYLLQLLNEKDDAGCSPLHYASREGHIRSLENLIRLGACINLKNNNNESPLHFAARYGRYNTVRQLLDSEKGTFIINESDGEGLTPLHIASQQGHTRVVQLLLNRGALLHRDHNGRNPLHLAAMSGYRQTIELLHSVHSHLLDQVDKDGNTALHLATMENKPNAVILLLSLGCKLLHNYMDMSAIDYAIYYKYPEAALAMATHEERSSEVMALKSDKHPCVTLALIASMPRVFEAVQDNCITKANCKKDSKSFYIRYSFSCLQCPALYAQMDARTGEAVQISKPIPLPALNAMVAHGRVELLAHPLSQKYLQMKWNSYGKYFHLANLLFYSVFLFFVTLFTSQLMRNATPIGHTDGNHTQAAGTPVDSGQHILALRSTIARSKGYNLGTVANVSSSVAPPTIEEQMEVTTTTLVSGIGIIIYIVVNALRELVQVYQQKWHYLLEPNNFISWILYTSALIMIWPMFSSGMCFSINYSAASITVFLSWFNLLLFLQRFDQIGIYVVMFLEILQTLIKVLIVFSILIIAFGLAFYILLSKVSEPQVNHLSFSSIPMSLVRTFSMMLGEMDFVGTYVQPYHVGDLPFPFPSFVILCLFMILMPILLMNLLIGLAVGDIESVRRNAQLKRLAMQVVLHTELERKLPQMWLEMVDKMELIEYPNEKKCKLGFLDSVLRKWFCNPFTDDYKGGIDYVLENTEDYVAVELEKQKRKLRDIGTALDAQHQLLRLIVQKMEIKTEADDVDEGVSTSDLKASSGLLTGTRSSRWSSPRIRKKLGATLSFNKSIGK
Experiment: two-electrode voltage clamp in Xenopus oocytes, weaker agonist at […]; no response in H2O-injected oocytes
Type: cell-based

In the case of `CC(=O)O[C@@H]1C=C(C2O[C@@H]3O[C@@H](O)C4=C[C@@H](OC(C)=O)[C@H]5C(C)(C)CCC[C@]5(C)[C@]43O2)[C@](O)(C=O)[C@@]2(C)CCCC(C)(C)[C@H]12` (stereo partly shown) [CFRAG, cinnafragrin A], the “two-electrode voltage clamp in Xenopus oocytes, weaker agonist at 10 μM; no resp” value is reported as “CFRAG produced a similar response, but the peak Im elicited by CDIAL”.
